Measurements reported in patent publication US20240228481A1, “NOVEL SULFONAMIDE SERIES OF QR2 INHIBITORS TO TACKLE OXIDATIVE STRESS AND COGNITIVE DECLINE” (CARMEL HAIFA UNIVERSITY ECONOMIC CORPORATION LTD., priority 2021, published 2024).

Columns and labels:
[1] = molecular target: T1, QR2 (Homo sapiens, UniProt P16083); assay: QR2 enzymatic activity assay (menadione/BNAH), fluorescence readout; format: biochemical; design: purchased Sigma-Aldrich
T1 sequence (P16083 1-231): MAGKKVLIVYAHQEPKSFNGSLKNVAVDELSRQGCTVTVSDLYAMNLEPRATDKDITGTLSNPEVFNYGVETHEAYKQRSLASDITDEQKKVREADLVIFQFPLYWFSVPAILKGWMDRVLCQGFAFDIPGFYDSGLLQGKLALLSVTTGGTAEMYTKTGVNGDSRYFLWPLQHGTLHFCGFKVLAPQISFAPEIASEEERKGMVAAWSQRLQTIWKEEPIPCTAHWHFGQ
Description: (§1) The enzymatic activity of QR2 (10 nM) was measured using menadione (both Sigma-Aldrich) as substrate and dihydrobenzylnicotamide (BNAH; Tocris) as co-substrate (Boutin et al., 2005). The reaction was performed in 50 mM Tris HCl, 150 mM NaCl 0.01% Tween-20 pH=8.5 (Sigma-Aldrich) at room temperature. Briefly, 3 μL of menadione alone (200 μM) or a mixture of menadione and QR2 (200 μM of menadione and 10 nM of QR2) were dispensed in 1536-well black Nunc plates (Thermo-Fisher) using a Multidrop™ Combi Reagent Dispenser (Thermo-Fisher) and pre-incubated with compounds for 10 min. BNAH (200 μM) was then added (3 μL) to the reaction using a BioNex Solutions BNX 1536 plate washer and the plates were incubated for another 10 min. […] The initial HTS was done with approximately 200,000 compounds at a single concentration of 5 μM. The chemical libraries used were Selleck Chemicals Bioactives, the Drug-like set from Enamine, HitFinder collection from Maybridge, Spectrum Collection from Microsource, Lopac from Sigma-Aldrich and the diversity sets from ChemDiv and ChemBridge. Initial “hit” compounds were defined as causing >30% reduction of enzyme activity. […] “Hit” compounds resulting from both the fluorescence and absorbance assay were tested in a dose-response, and median inhibition concentration (IC50) values were determined. In parallel, the same dose response was used in a selectivity assay where QR2 enzyme was replaced by QR1 (also known as—NQO1, 10 nM; Sigma-Aldrich).
(§2) In order to establish a varied, flexible and chemically amenable starting point from which to develop such inhibitors, the inventors ran a standardized QR2 assay (see methods) against ˜200,000 compounds, from a varied assortment of chemical libraries.

[2] = molecular target: T2, QR1 (NQO1) (Homo sapiens, UniProt P15559); assay: Selectivity assay with QR1 in place of QR2, absorbance readout; format: biochemical
T2 construct: purchased Sigma-Aldrich
T2 sequence (P15559 whole entry): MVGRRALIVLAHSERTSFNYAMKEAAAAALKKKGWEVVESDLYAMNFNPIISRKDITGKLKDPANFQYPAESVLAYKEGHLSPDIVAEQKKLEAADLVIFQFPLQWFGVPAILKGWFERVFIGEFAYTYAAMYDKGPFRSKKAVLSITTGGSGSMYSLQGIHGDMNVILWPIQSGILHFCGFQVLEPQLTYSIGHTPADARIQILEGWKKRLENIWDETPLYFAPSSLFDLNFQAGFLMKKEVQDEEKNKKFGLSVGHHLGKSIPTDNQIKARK
Description: (§3) The enzymatic activity of QR2 (10 nM) was measured using menadione (both Sigma-Aldrich) as substrate and dihydrobenzylnicotamide (BNAH; Tocris) as co-substrate (Boutin et al., 2005). The reaction was performed in 50 mM Tris HCl, 150 mM NaCl 0.01% Tween-20 pH=8.5 (Sigma-Aldrich) at room temperature. Briefly, 3 μL of menadione alone (200 μM) or a mixture of menadione and QR2 (200 μM of menadione and 10 nM of QR2) were dispensed in 1536-well black Nunc plates (Thermo-Fisher) using a Multidrop™ Combi Reagent Dispenser (Thermo-Fisher) and pre-incubated with compounds for 10 min. BNAH (200 μM) was then added (3 μL) to the reaction using a BioNex Solutions BNX 1536 plate washer and the plates were incubated for another 10 min. […] The initial HTS was done with approximately 200,000 compounds at a single concentration of 5 μM. The chemical libraries used were Selleck Chemicals Bioactives, the Drug-like set from Enamine, HitFinder collection from Maybridge, Spectrum Collection from Microsource, Lopac from Sigma-Aldrich and the diversity sets from ChemDiv and ChemBridge. Initial “hit” compounds were defined as causing >30% reduction of enzyme activity. Compounds suspected to be fluorescent were re-assayed in an absorbance assay at 350 nm using the same reaction but in a higher volume (100 μL), in a transparent plate (Greiner Bio-One). “Hit” compounds resulting from both the fluorescence and absorbance assay were tested in a dose-response, and median inhibition concentration (IC50) values were determined. In parallel, the same dose response was used in a selectivity assay where QR2 enzyme was replaced by QR1 (also known as—NQO1, 10 nM; Sigma-Aldrich).
(§4) In order to establish a varied, flexible and chemically amenable starting point from which to develop such inhibitors, the inventors ran a standardized QR2 assay (see methods) against ˜200,000 compounds, from a varied assortment of chemical libraries. […] Compounds that replicated the initial hit result were then assayed similarly, against NQO1, to evaluate compound specificity (FIG. 1B). From the HTS, a series of compounds containing a sulfonamide central linker, with an amine on one side and a heterocycle on the other, were identified and selected for SAR development (FIG. 1C).

[3] = molecular target: T1, QR2; assay: QR2 enzymatic activity assay (menadione/BNAH), absorbance readout at 350 nm; format: biochemical; design: purchased Sigma-Aldrich
Description: as §1, §2

[4] = molecular target: T2, QR1 (NQO1); assay: Selectivity assay with QR1 in place of QR2, fluorescence readout; format: biochemical
Description: as §3, §4

[5] = in vitro; details: human

SMILES | IC50 [1] | IC50 [2] | IC50 [3] | IC50 [4] | IC50 at 72 h [5]
Cc1ccn2cc(-c3cccc(S(=O)(=O)N4CCCC4)c3)nc2c1 [PCM-0124535] | 0.59 µM | > 9.99 µM | 0.16 µM | > 9.99 µM | 88.9 µM
Cc1cccn2cc(-c3cccc(S(=O)(=O)N4CCCCCC4)c3)nc12 [PCM-0124812] | 0.004 µM | 7.24 µM | 0.01 µM | 5.83 µM | 45.4 µM
Cc1cc(-c2ccc(C)c(S(=O)(=O)NCCCN3CCCC3=O)c2)on1 [PCM-0184891] | 3.26 µM | > 9.99 µM | 2.37 µM | > 9.9 µM | 219 µM
Cc1cc(-c2ccc(C)c(S(=O)(=O)NCc3cccnc3)c2)on1 [PCM-0184959] | 2.72 µM | > 9.99 µM | 2.16 µM | > 9.9 µM | 249 µM
Cc1nc(-c2ccc(C)c(S(=O)(=O)N3CCC(C)CC3)c2)cs1 [PCM-0197104] | 7.4 µM | > 9.99 µM | 4.58 µM | > 9.99 µM | 
CCc1noc(-c2c(S(=O)(=O)NCc3cccc(OC)c3)c(C)n(C)c2C)n1 [PCM-0200337] | > 9.9 µM | > 9.99 µM | 8.09 µM | > 9.9 µM | 
CS(=O)(=O)N(C1CC1)C1CCOC2(CCN(C(=O)C3(c4ccccc4)CC3)CC2)C1 (centres unmarked) [PCM-0207818] | > 9.9 µM | > 9.99 µM | > 9.99 µM | > 9.9 µM | 
Cc1cc(-c2ccc(C)c(S(=O)(=O)N3CCCCCC3)c2)on1 [PCM-0212385] | 1.92 µM | > 9.99 µM | 1.24 µM | > 9.99 µM | 23.8 µM
Cc1cc(-c2ccc(C)c(S(=O)(=O)N3CCCC3)c2)on1 [PCM-0212386] | 0.42 µM | > 9.99 µM | 0.75 µM | > 9.99 µM | 65.1 µM
Cc1cc(-c2ccc(C)c(S(=O)(=O)N3CCC(C)CC3)c2)on1 [PCM-0212387] | 2.89 µM | > 9.99 µM | 1.83 µM | > 9.99 µM | 50 µM
Cc1cc(-c2ccc(C)c(S(=O)(=O)N3CCN(C(=O)c4ccco4)CC3)c2)on1 [PCM-0212388] | 1.19 µM | > 9.99 µM | 1.25 µM | > 9.99 µM | 124 µM
Cc1cc(-c2ccc(C)c(S(=O)(=O)N(C)C)c2)on1 [PCM-0212389] | 2.31 µM | > 9.99 µM | 1.71 µM | > 9.99 µM | 215 µM
Cc1cccn2cc(-c3cccc(S(=O)(=O)Nc4ccc(Cl)cc4)c3)nc12 [PCM-0213788] | 3.04 µM | > 9.99 µM | 0.05 µM | > 9.99 µM | 
Cc1ccn2cc(-c3ccc(C)c(S(=O)(=O)N4CCN(C(=O)c5ccco5)CC4)c3)nc2c1 [PCM-0213790] | 0.27 µM | 7.15 µM | 0.11 µM | > 9.99 µM | 
Cc1cc(-c2ccc(C)c(S(=O)(=O)N3CCN(C(=O)c4ccco4)CC3)c2)n[nH]1 [PCM-0213791] | 0.26 µM | > 9.99 µM | 0.08 µM | > 9.99 µM | 
Cc1cccn2cc(-c3cccc(S(=O)(=O)N4CCN(C(=O)c5ccco5)CC4)c3)nc12 [PCM-0213792] | 0.01 µM | 4.22 µM | 0.01 µM | 3.33 µM | 64.1 µM
Cc1nc(-c2ccc(C)c(S(=O)(=O)NCCCN3CCCC3=O)c2)cs1 [PCM-0213793] | 5.45 µM | > 9.99 µM | 2.91 µM | > 9.99 µM | 
Cc1cccn2cc(-c3cccc(S(=O)(=O)NCCCN4CCCC4=O)c3)nc12 [PCM-0213794] | 0.25 µM | > 9.99 µM | 0.11 µM | > 9.99 µM | 
Cc1cc(-c2ccc(C)c(S(=O)(=O)N3CCCCCC3)c2)[nH]n1 [PCM-0213795] | 0.64 µM | > 9.99 µM | 0.28 µM | > 9.99 µM | 
Cc1nc(-c2ccc(C)c(S(=O)(=O)N3CCCCCC3)c2)cs1 [PCM-0213796] | > 9.99 µM | > 9.99 µM | 2.44 µM | > 9.99 µM | 
Cc1ccc(-c2nnc(-c3ccccc3)o2)cc1S(=O)(=O)N1CCCCCC1 [PCM-0213797] | 3.38 µM | > 9.99 µM | 1.06 µM | > 9.99 µM | 
Cc1ccn2cc(-c3cccc(S(=O)(=O)N4CCCCCC4)c3)nc2c1 [PCM-0213798] | 1.27 µM | > 9.99 µM | 0.41 µM | > 9.99 µM | 
Cc1cc(-c2ccc(C)c(S(=O)(=O)N3CCC(C)CC3)c2)n[nH]1 [PCM-0213799] | 0.9 µM | > 9.99 µM | 0.27 µM | > 9.99 µM | 

More lines, now with the values ahead:

IC50 [1] | IC50 [2] | IC50 [3] | IC50 [4] | IC50 at 72 h [5] | SMILES
0.39 µM | > 9.99 µM | 0.16 µM | > 9.99 µM |  | Cc1cc(-c2ccc(C)c(S(=O)(=O)N(C)C)c2)n[nH]1 [PCM-0213802]
2.8 µM | > 9.99 µM | 0.1 µM | > 9.99 µM |  | Cc1nc(-c2ccc(C)c(S(=O)(=O)N(C)C)c2)cs1 [PCM-0213803]
1.48 µM | > 9.99 µM | 0.25 µM | > 9.99 µM |  | Cc1ccc(-c2nnc(-c3ccccc3)o2)cc1S(=O)(=O)N1CCCC1 [PCM-0213805]
0.17 µM | > 9.99 µM | 0.05 µM | > 9.99 µM |  | Cc1cc(-c2ccc(C)c(S(=O)(=O)N3CCCC3)c2)n[nH]1 [PCM-0213806]
1.55 µM | > 9.99 µM | 0.37 µM | > 9.99 µM |  | Cc1nc(-c2ccc(C)c(S(=O)(=O)N3CCCC3)c2)cs1 [PCM-0213807]
0.51 µM | > 9.99 µM | 0.18 µM | > 9.99 µM |  | Cc1ccn2cc(-c3ccc(C)c(S(=O)(=O)N4CCCC4)c3)nc2c1 [PCM-0213809]
3.16 µM | > 9.99 µM | 0.98 µM | > 9.99 µM |  | Cc1cc(-c2ccc(C)c(S(=O)(=O)NCc3cccnc3)c2)n[nH]1 [PCM-0213811]
9.62 µM | 8.6 µM | 0.75 µM | > 9.99 µM |  | Cc1ccn2cc(-c3cccc(S(=O)(=O)NCc4cccnc4)c3)nc2c1 [PCM-0213812]
6.49 µM | > 9.99 µM | 1.17 µM | > 9.99 µM |  | Cc1ccc(-c2nnc(-c3ccccc3)o2)cc1S(=O)(=O)NCc1cccnc1 [PCM-0213813]
0.93 µM | > 9.99 µM | 0.28 µM | > 9.99 µM |  | Cc1cc(-c2ccc(C)c(S(=O)(=O)NCCCN3CCCC3=O)c2)n[nH]1 [PCM-0213815]
0.7 µM | 3.44 µM | 0.32 µM | 5.28 µM |  | Cc1ccn2cc(-c3cccc(S(=O)(=O)NCCCN4CCCC4=O)c3)nc2c1 [PCM-0213817]
3.96 µM |  | 4.49 µM |  | 59.4 µM | Cc1ccn2cc(-c3ccc(C)c(S(=O)(=O)N4CCC(C)CC4)c3)nc2c1 [PCM-0214339]
